# Assay results from article PMC5198511 (Molecular Pharmacology, 2017).
# Tests used:
# LogD7.4 measurement = format: physicochemical; conditions: 1-octanol/phosphate buffer, pH 7.4
# [1] = Immobilized artificial membrane chromatography; format: physicochemical; conditions: IAM chromatography, pH 7.4
smiles,measurement,setting,value
CCNC(=O)[C@H]1O[C@@H](n2cnc3c(N)nc(NCCc4ccc(CCC(=O)O)cc4)nc32)[C@H](O)[C@@H]1O [Compound 3ac],logD,LogD7.4 measurement,< -0.8
same,log KIAM,[1],−0.09
